Laboratory results from the OligoGym collection.
“And” between values parts separate entries of the source, which are not always exact repeats. Equal entries are not always repeated. HELM strings list units from the 5' end as sugar, base in round brackets, then linkage (d deoxyribose, r ribose, m 2'-O-methyl, p phosphodiester). Strings are as the collection lists them, not checked against the first reports. ss, as = sense and antisense strand; [fl2r] = 2'-fluoro

Details: siRNA
Further: test system not given here.

Substance	target mRNA knockdown
RNA1{r(A)p.r(A)p.r(A)p.r(G)p.r(G)p.r(G)p.r(G)p.r(A)p.r(G)p.r(U)p.m(U)p.r(G)p.r(C)p.m(U)p.r(G)p.r(G)p.r(A)p.r(A)p.r(G)p.r(T)p.r(T)}|RNA2{r(C)p.r(U)p.r(U)p.r(C)p.m(C)p.r(A)p.r(G)p.m(C)p.r(A)p.r(A)p.r(C)p.r(U)p.r(C)p.r(C)p.r(C)p.r(C)p.r(U)p.r(U)p.r(U)p.r(T)p.r(T)}$$$RNA1{StrandType:ss}|RNA2{StrandType:as}$	74%
RNA1{r(A)p.r(A)p.r(A)p.r(G)p.r(G)p.r(G)p.r(G)p.r(A)p.r(G)p.r(U)p.m(U)p.r(G)p.r(C)p.m(U)p.r(G)p.r(G)p.r(A)p.r(A)p.r(G)p.r(T)p.r(T)}|RNA2{r(C)p.r(U)p.r(U)p.r(C)p.m(C)p.r(A)p.r(G)p.r(C)p.r(A)p.r(A)p.r(C)p.r(U)p.r(C)p.r(C)p.r(C)p.r(C)p.r(U)p.r(U)p.r(U)p.r(T)p.r(T)}$$$RNA1{StrandType:ss}|RNA2{StrandType:as}$	76%
RNA1{r(A)p.r(A)p.r(C)p.r(A)p.r(G)p.r(C)p.r(C)p.r(U)p.r(U)p.r(A)p.r(C)p.r(C)p.r(C)p.r(C)p.r(G)p.r(A)p.r(U)p.r(U)p.r(C)p.r(T)p.r(T)}|RNA2{r(G)p.r(A)p.r(A)p.r(U)p.r(C)p.r(G)p.r(G)p.r(G)p.r(G)p.m(U)p.r(A)p.r(A)p.r(G)p.r(G)p.r(C)p.r(U)p.r(G)p.r(U)p.r(U)p.r(T)p.r(T)}$$$RNA1{StrandType:ss}|RNA2{StrandType:as}$	69%
RNA1{r(A)p.r(A)p.r(C)p.r(A)p.r(G)p.r(U)p.r(C)p.r(C)p.r(U)p.m(U)p.r(A)p.r(G)p.r(C)p.m(U)p.r(A)p.r(C)p.r(G)p.r(C)p.m(U)p.r(T)p.r(T)}|RNA2{r(A)p.r(G)p.r(C)p.r(G)p.m(U)p.r(A)p.r(G)p.r(C)p.r(U)p.r(A)p.r(A)p.r(G)p.r(G)p.r(A)p.r(C)p.r(U)p.r(G)p.r(U)p.r(U)p.r(T)p.r(T)}$$$RNA1{StrandType:ss}|RNA2{StrandType:as}$	82%
RNA1{r(A)p.r(A)p.r(C)p.r(C)p.[fl2r](C)p.r(A)p.r(C)p.r(C)p.r(A)p.[fl2r](C)p.r(A)p.r(G)p.r(C)p.[fl2r](U)p.r(A)p.r(G)p.r(A)p.r(A)p.r(C)p.r(U)p.r(U)}|RNA2{r(G)p.r(U)p.r(U)p.r(C)p.[fl2r](U)p.r(A)p.r(G)p.r(C)p.[fl2r](U)p.r(G)p.[fl2r](U)p.r(G)p.r(G)p.[fl2r](U)p.r(G)p.r(G)p.r(G)p.r(U)p.r(U)p.r(U)p.r(U)}$$$RNA1{StrandType:ss}|RNA2{StrandType:as}$	79%
RNA1{r(A)p.r(A)p.r(C)p.r(C)p.[fl2r](C)p.r(A)p.r(C)p.r(C)p.r(A)p.r(C)p.r(A)p.r(G)p.r(C)p.[fl2r](U)p.r(A)p.r(G)p.r(A)p.r(A)p.r(C)p.r(U)p.r(U)}|RNA2{r(G)p.r(U)p.r(U)p.r(C)p.[fl2r](U)p.[fl2r](A)p.r(G)p.r(C)p.[fl2r](U)p.r(G)p.r(U)p.r(G)p.r(G)p.r(U)p.r(G)p.r(G)p.r(G)p.r(U)p.r(U)p.r(U)p.r(U)}$$$RNA1{StrandType:ss}|RNA2{StrandType:as}$	86%
RNA1{r(A)p.r(A)p.r(C)p.r(C)p.m(C)p.r(A)p.r(A)p.r(A)p.r(G)p.r(G)p.r(G)p.m(G)p.r(A)p.r(G)p.r(U)p.m(U)p.r(G)p.r(C)p.r(U)p.r(T)p.r(T)}|RNA2{r(A)p.r(G)p.m(C)p.r(A)p.r(A)p.r(C)p.r(U)p.r(C)p.r(C)p.r(C)p.r(C)p.r(U)p.r(U)p.m(U)p.r(G)p.r(G)p.r(G)p.r(U)p.r(U)p.r(T)p.r(T)}$$$RNA1{StrandType:ss}|RNA2{StrandType:as}$	92%
RNA1{r(A)p.r(A)p.r(C)p.r(C)p.r(C)p.r(A)p.r(A)p.r(A)p.r(G)p.r(G)p.r(G)p.r(G)p.r(A)p.r(G)p.r(U)p.m(U)p.r(G)p.r(C)p.r(U)p.r(T)p.r(T)}|RNA2{r(A)p.r(G)p.r(C)p.r(A)p.r(A)p.r(C)p.r(U)p.r(C)p.r(C)p.r(C)p.r(C)p.r(U)p.r(U)p.m(U)p.r(G)p.r(G)p.r(G)p.r(U)p.r(U)p.r(T)p.r(T)}$$$RNA1{StrandType:ss}|RNA2{StrandType:as}$	83%
RNA1{r(A)p.r(A)p.r(C)p.r(C)p.r(C)p.r(A)p.r(C)p.r(C)p.r(A)p.r(C)p.r(A)p.[fl2r](G)p.r(C)p.[fl2r](U)p.[fl2r](A)p.[fl2r](G)p.r(A)p.r(A)p.r(C)p.r(U)p.r(U)}|RNA2{r(A)p.r(A)p.r(G)p.r(U)p.r(U)p.r(C)p.r(U)p.r(A)p.r(G)p.r(C)p.r(U)p.r(G)p.r(U)p.r(G)p.r(G)p.r(U)p.r(G)p.r(G)p.r(G)p.r(U)p.r(U)}$$$RNA1{StrandType:ss}|RNA2{StrandType:as}$	75%
RNA1{r(A)p.r(A)p.r(C)p.r(C)p.r(C)p.r(A)p.r(C)p.r(C)p.r(A)p.r(C)p.r(A)p.r(G)p.r(C)p.[fl2r](U)p.[fl2r](A)p.r(G)p.r(A)p.r(A)p.r(C)p.r(U)p.r(U)}|RNA2{r(A)p.r(A)p.r(G)p.r(U)p.r(U)p.r(C)p.[fl2r](U)p.[fl2r](A)p.r(G)p.r(C)p.r(U)p.r(G)p.r(U)p.r(G)p.r(G)p.r(U)p.r(G)p.r(G)p.r(G)p.r(U)p.r(U)}$$$RNA1{StrandType:ss}|RNA2{StrandType:as}$	57%
RNA1{r(A)p.r(A)p.r(C)p.r(C)p.r(C)p.r(A)p.r(C)p.r(C)p.r(A)p.r(C)p.r(A)p.r(G)p.r(C)p.m(U)p.m(A)p.r(G)p.r(A)p.r(A)p.r(C)p.m(U)p.m(U)}|RNA2{r(A)p.r(A)p.r(G)p.m(U)p.m(U)p.r(C)p.m(U)p.m(A)p.r(G)p.r(C)p.m(U)p.r(G)p.m(U)p.r(G)p.r(G)p.m(U)p.r(G)p.r(G)p.r(G)p.m(U)p.m(U)}$$$RNA1{StrandType:ss}|RNA2{StrandType:as}$	24%
RNA1{r(A)p.r(A)p.r(C)p.r(C)p.r(C)p.r(A)p.r(C)p.r(C)p.r(A)p.r(C)p.r(A)p.r(G)p.r(C)p.m(U)p.m(A)p.r(G)p.r(A)p.r(A)p.r(C)p.m(U)p.m(U)}|RNA2{r(A)p.r(A)p.r(G)p.r(U)p.r(U)p.r(C)p.m(U)p.m(A)p.r(G)p.r(C)p.r(U)p.r(G)p.r(U)p.r(G)p.r(G)p.r(U)p.r(G)p.r(G)p.r(G)p.r(U)p.r(U)}$$$RNA1{StrandType:ss}|RNA2{StrandType:as}$	51%
RNA1{r(A)p.r(A)p.r(C)p.r(C)p.r(C)p.r(A)p.r(C)p.r(C)p.r(A)p.r(C)p.r(A)p.r(G)p.r(C)p.m(U)p.m(A)p.r(G)p.r(A)p.r(A)p.r(C)p.r(U)p.r(U)}|RNA2{r(A)p.r(A)p.r(G)p.r(U)p.r(U)p.r(C)p.r(U)p.r(A)p.r(G)p.r(C)p.r(U)p.r(G)p.r(U)p.r(G)p.r(G)p.r(U)p.r(G)p.r(G)p.r(G)p.r(U)p.r(U)}$$$RNA1{StrandType:ss}|RNA2{StrandType:as}$	79%
RNA1{r(A)p.r(A)p.r(C)p.r(C)p.r(C)p.r(A)p.r(C)p.r(C)p.r(A)p.r(C)p.r(A)p.r(G)p.r(C)p.m(U)p.r(A)p.r(G)p.r(A)p.r(A)p.r(C)p.m(U)p.m(U)}|RNA2{r(A)p.r(A)p.r(G)p.r(U)p.r(U)p.r(C)p.m(U)p.r(A)p.r(G)p.r(C)p.r(U)p.r(G)p.r(U)p.r(G)p.r(G)p.r(U)p.r(G)p.r(G)p.r(G)p.r(U)p.r(U)}$$$RNA1{StrandType:ss}|RNA2{StrandType:as}$	81%
RNA1{r(A)p.r(A)p.r(C)p.r(C)p.r(C)p.r(A)p.r(C)p.r(C)p.r(A)p.r(C)p.r(A)p.r(G)p.r(C)p.m(U)p.r(A)p.r(G)p.r(A)p.r(A)p.r(C)p.m(U)p.m(U)}|RNA2{r(A)p.r(A)p.r(G)p.r(U)p.r(U)p.r(C)p.r(U)p.r(A)p.r(G)p.r(C)p.r(U)p.r(G)p.r(U)p.r(G)p.r(G)p.r(U)p.r(G)p.r(G)p.r(G)p.r(U)p.r(U)}$$$RNA1{StrandType:ss}|RNA2{StrandType:as}$	81%
RNA1{r(A)p.r(A)p.r(C)p.r(C)p.r(C)p.r(A)p.r(C)p.r(C)p.r(A)p.r(C)p.r(A)p.r(G)p.r(C)p.m(U)p.r(A)p.r(G)p.r(A)p.r(A)p.r(C)p.r(U)p.r(U)}|RNA2{r(A)p.r(A)p.r(G)p.r(U)p.r(U)p.r(C)p.r(U)p.r(A)p.r(G)p.r(C)p.r(U)p.r(G)p.r(U)p.r(G)p.r(G)p.r(U)p.r(G)p.r(G)p.r(G)p.r(U)p.r(U)}$$$RNA1{StrandType:ss}|RNA2{StrandType:as}$	84% and 82%
RNA1{r(A)p.r(A)p.r(C)p.r(C)p.r(C)p.r(A)p.r(C)p.r(C)p.r(A)p.r(C)p.r(A)p.r(G)p.r(C)p.r(U)p.r(A)p.r(G)p.r(A)p.r(A)p.r(C)p.r(U)p.r(U)}|RNA2{r(A)p.r(A)p.m(G)p.m(U)p.m(U)p.r(C)p.m(U)p.r(A)p.m(G)p.r(C)p.m(U)p.m(G)p.m(U)p.m(G)p.m(G)p.m(U)p.m(G)p.m(G)p.r(G)p.m(U)p.m(U)}$$$RNA1{StrandType:ss}|RNA2{StrandType:as}$	15%
RNA1{r(A)p.r(A)p.r(C)p.r(C)p.r(C)p.r(A)p.r(C)p.r(C)p.r(A)p.r(C)p.r(A)p.r(G)p.r(C)p.r(U)p.r(A)p.r(G)p.r(A)p.r(A)p.r(C)p.r(U)p.r(U)}|RNA2{r(A)p.r(A)p.r(G)p.[fl2r](U)p.[fl2r](U)p.r(C)p.[fl2r](U)p.r(A)p.r(G)p.r(C)p.r(U)p.r(G)p.[fl2r](U)p.r(G)p.r(G)p.[fl2r](U)p.r(G)p.r(G)p.r(G)p.[fl2r](U)p.[fl2r](U)}$$$RNA1{StrandType:ss}|RNA2{StrandType:as}$	14%
RNA1{r(A)p.r(A)p.r(C)p.r(U)p.r(C)p.[fl2r](U)p.r(A)p.r(C)p.[fl2r](U)p.r(G)p.[fl2r](U)p.r(G)p.r(G)p.r(A)p.r(G)p.r(U)p.r(C)p.r(G)p.r(G)p.r(T)p.r(T)}|RNA2{r(C)p.r(C)p.r(G)p.r(A)p.r(C)p.r(U)p.r(C)p.[fl2r](C)p.r(A)p.[fl2r](C)p.r(A)p.r(G)p.[fl2r](U)p.r(A)p.r(G)p.r(A)p.r(G)p.r(U)p.r(U)p.r(T)p.r(T)}$$$RNA1{StrandType:ss}|RNA2{StrandType:as}$	65%
RNA1{r(A)p.r(A)p.r(C)p.r(U)p.r(C)p.m(U)p.r(A)p.r(C)p.m(U)p.r(G)p.m(U)p.r(G)p.r(G)p.r(A)p.r(G)p.r(U)p.r(C)p.r(G)p.r(G)p.r(T)p.r(T)}|RNA2{r(C)p.r(C)p.r(G)p.r(A)p.r(C)p.r(U)p.r(C)p.m(C)p.r(A)p.r(C)p.r(A)p.r(G)p.m(U)p.r(A)p.r(G)p.r(A)p.r(G)p.r(U)p.r(U)p.r(T)p.r(T)}$$$RNA1{StrandType:ss}|RNA2{StrandType:as}$	68%
